Tests used:
human neutrophils = experiment: Apoptosis rate of isolated human neutrophil granulocytes (sub-G1 cells, propidium iodide, flow cytometry); format: cell-based; settings: for prevention of the reduction of the apoptosis rate caused by CNP with or without budenoside / background apoptosis rate: Experiment 7, 1 mM test substance, 16 h; for prevention of the reduction of the apoptosis rate caused by CNP with or without budenoside: young volunteers; for background apoptosis rate: neutrophils from young volunteers
Experimental: The effect of ectoine on the apoptosis was investigated by way of human neutrophils. Neutrophils from young, healthy donors (3 male and 2 female) were isolated and treated with the amounts of ectoine (mM) indicated. Treatment was carried out with ectoine alone (open columns) and with 33 μg/ml of CNP (black columns). Ectoine was not administered in the control group (C).
The apoptotic cells were quantified in the following manner: The neutrophils were suspended in 300 μl of hypotonic solution containing propidium iodide (PI). The fluorescence of PI was determined by means of flow cytometry (FACScan cytometer, BD Biosciences). The results are shown as percentage of hypodiploidal DNA (sub-G1), corresponding to fragmented DNA which is characteristic of apoptotic cells.
The effect of ectoine on the apoptosis was investigated by way of human neutrophils. Neutrophils of young, healthy donors (3 male and 2 female) were isolated and pretreated for 2 hours with PBS (dark columns) and with 1 mM of ectoine (light columns). Subsequently, treatment took place with 33 μg/ml of carbon nanoparticles (ufCB: ultrafine carbon black), 300 nM LTB4, 20 ng/ml GM CSF or 1 μM of dexamethasone, respectively no treatment with proinflammatory factors. (†: significant difference with respect to control group; *: significant difference with respect to neutrophils treated with proinflammatory factors and PBS only; quantification of the apoptotic cells analogous to Experiment 2).
The neutrophil granulocytes were pretreated for 2 hours with 1 mM of ectoine resp. PBS following which treatment took place for 16 hours with 33 μg/ml CNP, 300 nM LTB4, 20 ng/ml GMCSF or PBS. […] (dark columns: pretreatment with ectoine; light columns: pretreatment with PBS; *: significant difference with respect to control group without CNP or inflammation mediators; §: significant difference with respect to the treatment without ectoine; quantification of the apoptotic cells analogously to Experiment 2).
For Experiments 5 to 7 neutrophil granulocytes were obtained from blood samples. Groups 1 and 2 consisted of persons who participated in a current patient study. Male patients (aged 40 to 80 years) with stable COPD history (GOLD III/IV) and healthy control patients from an identical age group.
The influence of ectoine in combination with the corticosteroid budesonide on the apoptosis rates of neutrophils is illustrated in FIG. 5. Sub-G1-cells were measured after propidium iodide coloration (FACS-flow cytometry). Cells: primary, peripheral neutrophils. Isolation of the neutrophils by Percoll® centrifugation. Cultivation of 2×10^6 neutrophils in the presence of 33 μg/ml CNP, 300 nM LTB4, 20 ng/ml GM-CSF, 1 μM budesonide, 1 mM ectoine and combinations thereof for 16 h. FIG. 5 A: cells cumulated from all samples (n=15), FIG. 5 B: cells from COPD patients (n=5), FIG. 5 C: cells from healthy age control group (n=5), FIG. 5 D: cells from young volunteers (n=5).
Sub-G1-cells were measured after propidium iodide coloration (FACS-flow cytometry). Cells: primary, peripheral, human neutrophils. Isolation of the neutrophils by Percoll® centrifugation and cultivation of 2×10^6 neutrophils in the presence of 33 μg/ml CNP, 1 μM budesonide, 1 mM ectoine, 1 mM urea, 1 mM ectoine amide and combinations thereof for 16 h. The cells were obtained from young volunteers (group 3), n=5, bud=budenoside. Two additional test substances (urea and the ectoine amide of 2-hydroxy-5-aminobenzoic acid) were examined to check whether they were capable of inhibiting anti-apoptotic effects on neutrophils.

protein kinase B (Akt) = experiment: Akt phosphorylation in human primary peripheral neutrophils (western blot); format: cell-based; settings: Experiment 6; 1 mM ectoine with 1 μM budesonide, also in the presence of 33 μg/ml CNP, 6 h
Experimental: (§1) The influence of ectoine in combination with budenoside on anti-apoptotic signals can be seen from FIG. 6. With selected samples of neutrophils relevant signals were detected via protein kinase B (Akt) and Mcl-1 by measurement of the Akt phosphorylation and the Mcl-1 protein level, with human primary peripheral neutrophils being used as cells. Isolation of the neutrophils by Percoll® centrifugation, the cultivation of 2×10^6 neutrophils in the presence of 33 μg/ml CNP, 1 μM budesonide, 1 mM ectoine and combinations thereof for 6 h. A protein isolation, western blot, luminescence on x-ray films was effected of material from each 3 COPD patients and 3 persons from the corresponding age control group.

Mcl-1 = Mcl-1 protein level in human primary peripheral neutrophils (western blot); format: cell-based; settings: Experiment 6; 1 mM ectoine with 1 μM budesonide, also in the presence of 33 μg/ml CNP, 6 h
Experimental: as §1

neutrophils = experiment: Neutrophil inflammation reactions in rats with carbon nanoparticles intratracheally administered; format: in vivo
Excerpt: Neutrophil inflammation reactions were examined in rats with carbon nanoparticles intratracheally administered. This involved administration both with and without ectoine. […] In the first place, the liberation of cinc-1 is initially due to epithelial cells and macrophages, whereas later on the liberation caused by the great amount of ultimately existing neutrophils dominates.
It thus follows that ectoine cannot only be used on a preemptive basis but also for the treatment of an already existing inflammation.
Carbon nanoparticles (CNP, 14 nm, Printex 90, Degussa, Frankfurt, Germany) were suspended in a phosphate buffered salt solution (PBS) by means of ultra-sonic treatment. Similarly, a 0.1 and a 1 mM solution of ectoine was produced in PBS. 0.4 ml of the CNP particle suspension was administered intratracheally to Fisher 344 female rats. Treatment with 0.4 ml of the ectoine solutions, respectively PBS took place after one and two days. The rats were sacrificed on the third day, their lungs purged with 4×5 ml of PBS each. The cells of the individual animals were suspended in 1 ml of PBS and centrifuged. The pellets were washed with PBS once and resuspended in 300 μl of hypotonic solution (0.1% sodium citrate, 0.1% triton×100) containing 50 μg/ml of propidium iodide (PI). To determine the rate of apoptosis a fluorescence measurement was finally performed.

[1] = ectoine administered repeatedly after inflammation reaction triggered off several times

Compound | prevention of the reduction of the apoptosis rate caused by CNP with or without budenoside (human neutrophils; 33 μg/ml CNP, 1 μM budesonide) | background apoptosis rate (human neutrophils) | effectiveness compared with ectoine (human neutrophils; cf. FIG. 7) | Akt phosphorylation, ectoine against budesonide effect (protein kinase B (Akt)) | reduction of the apoptosis rate caused by CNP (human neutrophils; Experiment 2, neutrophils from young healthy donors, 33 μg/ml CNP, significant amounts of ectoine) | apoptosis rate reduced by inflammatory stimulants (human neutrophils; Experiment 4, COPD and non-COPD patients, 2 h pretreatment 1 mM ectoine, then 16 h 33 μg/ml CNP, 300 nM LTB4 or 20 ng/ml GMCSF) | anti-apoptotic effect of proinflammatory substances combined with budesonide, with ectoine (human neutrophils; Experiment 5, CNP, LTB4, GM-CSF combined with 1 μM budesonide, 1 mM ectoine) | anti-apoptotic effect of budesonide, with ectoine (human neutrophils; Experiment 5, pretreatment 1 mM ectoine, 1 μM budesonide, no proinflammatory substances, all groups) | compensation of the reduction of the apoptosis rate due to pro-inflammatory factors (human neutrophils; isolated human neutrophil granulocytes, CNP, LTB4 or GM-CSF) | apoptosis rate, ectoine alone (human neutrophils; neutrophils without previous treatment with pro-inflammatory factors) | Mcl-1 protein level, ectoine against budesonide effect (Mcl-1) | amount of neutrophils (neutrophils; [1]) | cinc-1 level (neutrophils; [1]) | liberation of cinc-1 (neutrophils; rats, carbon nanoparticles intratracheally with ectoine, after two days) | amount of neutrophils (neutrophils; rats, carbon nanoparticles intratracheally with ectoine, after two days, in comparison to the placebo group) | effect of ectoine given after commencement of the inflammatory reaction (neutrophils; two doses, one and two days after commencement of the inflammatory reaction)
CC1=NCCC(C(=O)Nc2ccc(O)c(C(=O)O)c2)N1 (stereo not drawn) [2-methyl-1,4,5,6-tetrahydropyrimidine-4-carboxylic acid amide of 2-hydroxy-5-aminobenzoic acid] | able to prevent the reduction of the apoptosis rate | did not have an influence on the background apoptosis rate | effectiveness comparable to ectoine itself | – | – | – | – | – | – | – | – | – | – | – | – | –
CC1=NCC[C@@H](C(=O)O)N1 [ectoine, (S)-2-methyl-1,4,5,6-tetrahydropyrimidine-4-carboxylic acid] | – | – | – | capable of counteracting this effect | could virtually be eliminated | resulted in the apoptosis rate to be restored significantly | the anti-apoptotic effect was successfully prevented | obviates the anti-apoptotic effect of the budesonide significantly | can be compensated depending on concentration at least partially | did not result in an increase of the apoptosis rate | capable of counteracting this effect | diminishing of the amount of neutrophils | lowering of the cinc-1 level | reduction of the liberation of cinc-1 | significant reduction of the amount of neutrophils | virtually had the same effect as an ectoine administration at the time the inflammatory reaction was triggered
NC(N)=O [urea, reference compound] | this could not be achieved | did not have an influence on the background apoptosis rate | – | – | – | – | – | – | – | – | – | – | – | – | – | –

Source: US20140315869A1, “THERAPEUTIC USES OF ECTOINE” (BITOP AG, priority 2011, published 2014)
